Test [1] concerns the target T1, N-type calcium channel (Homo sapiens, UniProt Q00975).
T1 construct: Human neuroblastoma cells IMR-32 were obtained from ATCC; host or cells: IMR-32 human neuroblastoma cells differentiated with dibutyl cAMP and bromodeoxyuridine
Nature of the test: Antagonistic activity on N-type calcium channel (fluorescence dye method), IMR-32 cells, changed procedure. The class given is cell-based. To be noted: Table 3, 60 mM KCl stimulation, calculated from the inhibition rates, read-out: N-type inhibition pIC50 (converted). The protocol:
(§1) Human neuroblastoma cells IMR-32 were obtained from ATCC (American Type Culture Collection). The medium used was a Phenol Red-free Eagle minimum essential medium (GIBCO) containing earle's salts supplement, 2 mM of L-glutamine (GIBCO), 1 mM of sodium pyruvate (pH 6.5) (GIBCO), antibiotic/antimicotic mixture (GIBCO) and 10% fetal calf serum (Cell Culture Technologies). 3 ml of 1×10^5/ml IMR-32 cells were spread on a glass dish (Iwaki Glass Co., Ltd.) having a diameter of 35 mm which was treated with poly-D-lysin (SIGMA) and collagen (COLLAGEN VITROGEN 100, Collagen Colo.). After the culture for 2 days, 1 mM (final concentration) of dibutyl cAMP and 2.5 μM of bromodeoxyuridine (SIGMA) were added. After the culture for additional 10 to 14 days, the cells were subjected to the activity determination. The medium for IMR-32 cells thus prepared was replaced with 1 ml of Phenol Red-free Eagle minimum essential medium (GIBCO) containing 1 ml of 10 μM fura-2/AM (Dojin Kagaku, Co.) and earle's salts supplement, and the incubation was conducted at 25° C. for 1 hour.
Then the medium was replaced with Phenol Red-free Eagle minimum essential medium (GIBCO) containing earle's salts supplement, from which fura-2/AM had been removed. After the incubation at 37° C. for 1 hour, the medium was replaced with a recording medium (20 mM of HEPES-KOH, 115 mM of NaCl, 5.4 mM of KCl, 0.8 mM of MgCl2, 1.8 mM of CaCl2 and 13.8 mM of D-glucose). Antagonistic activity on N-type calcium channel was determined and analyzed by using a fluorescence microscope (Nikon Corporation) and an image analysis device ARGUS 50 (Hamamatsu Photonics). In particular, a recording medium (20 mM of HEPES-KOH, 115 mM of NaCl, 5.4 mM of KCl, 0.8 mM of MgCl2, 1.8 mM of CaCl2 and 13.8 mM of D-glucose) containing 1 μM of Nifedipine was given to the cells by reflux by a Y-tube method. Then a stimulating agent containing 60 mM of potassium chloride was rapidly given by the Y-tube method. Thereafter stimulating agents containing 60 mM of potassium chloride and 0.1, 1 or 10 μM of test compound were successively rapidly given by the Y-tube method to determine the antagonistic activity on the channel. Finally, a stimulating agent containing 60 mM of potassium chloride and 1 μM of omega conotoxin GVIA (Peptide institute, inc.) was rapidly given by the Y-tube method to realize a condition of 100% inhibition of N-type calcium channel.
The same procedure as that of the above-described tests was repeated except for the following changes: 60 mM of potassium chloride-containing stimulating agent was rapidly given by the Y-tube method while the calcium concentration change in the cells was examined in terms of N-type calcium channel activity. […] A change in calcium concentration in the cells was determined.

Test [2] deals with T1, N-type calcium channel. Description: Antagonistic activity on N-type calcium channel (fluorescence dye method), IMR-32 cells, in presence of 1 μM Nifedipine. The class given is cell-based. To be noted: Table 2, 60 mM KCl stimulation, fura-2, read-out: N-type inhibition pIC50 (converted). The procedure:
as §1, with “The medium for IMR-32 cells thus prepared was replaced with 1 ml of Phenol Red-free Eagle minimum essential medium (GIBCO) containing 1 ml of 10 μM fura-2/AM (Dojin Kagaku, Co.) and earle's salts supplement, and the incubation was conducted at 25° C. for 1 hour.” left out
Then the medium was replaced with Phenol Red-free Eagle minimum essential medium (GIBCO) containing earle's salts supplement, from which fura-2/AM had been removed. […] Antagonistic activity on N-type calcium channel was determined and analyzed by using a fluorescence microscope (Nikon Corporation) and an image analysis device ARGUS 50 (Hamamatsu Photonics). […]

T1 sequence (Q00975 whole entry): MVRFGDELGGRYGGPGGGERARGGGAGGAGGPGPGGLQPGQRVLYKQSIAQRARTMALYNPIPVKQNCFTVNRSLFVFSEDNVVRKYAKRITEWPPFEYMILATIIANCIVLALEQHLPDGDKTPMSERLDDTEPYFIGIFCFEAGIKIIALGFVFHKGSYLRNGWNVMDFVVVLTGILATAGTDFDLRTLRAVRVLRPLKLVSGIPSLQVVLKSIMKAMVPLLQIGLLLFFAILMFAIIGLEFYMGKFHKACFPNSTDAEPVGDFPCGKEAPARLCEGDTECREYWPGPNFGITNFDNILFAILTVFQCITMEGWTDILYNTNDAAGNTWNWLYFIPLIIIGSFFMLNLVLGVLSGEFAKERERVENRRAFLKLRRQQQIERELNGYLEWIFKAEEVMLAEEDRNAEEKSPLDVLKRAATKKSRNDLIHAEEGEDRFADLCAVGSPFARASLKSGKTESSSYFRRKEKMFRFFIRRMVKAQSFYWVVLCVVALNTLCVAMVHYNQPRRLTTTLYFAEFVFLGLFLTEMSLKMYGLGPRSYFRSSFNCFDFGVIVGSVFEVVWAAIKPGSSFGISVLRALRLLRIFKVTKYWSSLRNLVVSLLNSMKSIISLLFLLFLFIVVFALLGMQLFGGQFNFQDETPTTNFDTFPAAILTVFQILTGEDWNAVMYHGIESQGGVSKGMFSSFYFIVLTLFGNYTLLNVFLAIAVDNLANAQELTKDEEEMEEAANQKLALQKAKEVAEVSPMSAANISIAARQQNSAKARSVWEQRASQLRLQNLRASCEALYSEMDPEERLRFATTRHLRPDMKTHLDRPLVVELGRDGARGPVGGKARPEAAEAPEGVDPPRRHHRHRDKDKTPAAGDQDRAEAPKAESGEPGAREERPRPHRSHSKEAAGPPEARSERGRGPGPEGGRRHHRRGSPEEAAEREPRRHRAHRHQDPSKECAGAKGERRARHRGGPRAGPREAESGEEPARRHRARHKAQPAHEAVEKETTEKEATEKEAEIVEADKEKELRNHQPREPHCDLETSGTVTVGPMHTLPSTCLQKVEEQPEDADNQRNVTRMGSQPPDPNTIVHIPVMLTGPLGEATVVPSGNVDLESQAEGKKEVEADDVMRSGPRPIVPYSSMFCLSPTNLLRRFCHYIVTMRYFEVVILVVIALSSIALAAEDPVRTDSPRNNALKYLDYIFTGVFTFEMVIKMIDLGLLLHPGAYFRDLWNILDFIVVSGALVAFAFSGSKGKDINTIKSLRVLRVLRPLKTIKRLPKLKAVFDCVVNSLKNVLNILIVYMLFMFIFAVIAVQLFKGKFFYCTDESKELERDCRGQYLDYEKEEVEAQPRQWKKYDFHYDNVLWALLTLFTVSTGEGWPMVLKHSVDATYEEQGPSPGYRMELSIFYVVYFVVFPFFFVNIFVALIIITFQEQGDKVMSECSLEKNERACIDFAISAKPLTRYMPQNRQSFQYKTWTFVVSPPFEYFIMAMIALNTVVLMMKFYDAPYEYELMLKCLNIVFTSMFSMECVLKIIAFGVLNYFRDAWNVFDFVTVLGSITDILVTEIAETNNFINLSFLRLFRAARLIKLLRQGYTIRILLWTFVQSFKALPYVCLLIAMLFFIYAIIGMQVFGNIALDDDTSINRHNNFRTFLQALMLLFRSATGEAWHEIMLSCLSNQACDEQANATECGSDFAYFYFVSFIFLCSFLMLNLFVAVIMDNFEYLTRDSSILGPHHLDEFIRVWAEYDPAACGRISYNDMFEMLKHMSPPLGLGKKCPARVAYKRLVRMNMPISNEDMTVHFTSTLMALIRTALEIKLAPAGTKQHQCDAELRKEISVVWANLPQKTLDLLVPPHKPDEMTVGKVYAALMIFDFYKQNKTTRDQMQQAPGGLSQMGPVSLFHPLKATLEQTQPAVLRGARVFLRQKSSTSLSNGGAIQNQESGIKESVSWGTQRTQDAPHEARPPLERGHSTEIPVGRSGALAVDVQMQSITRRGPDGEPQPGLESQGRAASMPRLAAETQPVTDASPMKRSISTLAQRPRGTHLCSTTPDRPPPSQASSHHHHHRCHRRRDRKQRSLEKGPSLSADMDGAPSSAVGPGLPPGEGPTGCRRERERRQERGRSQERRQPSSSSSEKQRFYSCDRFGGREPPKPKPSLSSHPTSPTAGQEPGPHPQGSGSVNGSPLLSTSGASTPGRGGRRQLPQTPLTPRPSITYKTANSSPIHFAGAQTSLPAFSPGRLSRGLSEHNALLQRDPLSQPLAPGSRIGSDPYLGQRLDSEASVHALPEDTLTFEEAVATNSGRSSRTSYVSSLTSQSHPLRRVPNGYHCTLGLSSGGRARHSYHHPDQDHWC
T1 sequence (P54289 25-956 partner limits assumed): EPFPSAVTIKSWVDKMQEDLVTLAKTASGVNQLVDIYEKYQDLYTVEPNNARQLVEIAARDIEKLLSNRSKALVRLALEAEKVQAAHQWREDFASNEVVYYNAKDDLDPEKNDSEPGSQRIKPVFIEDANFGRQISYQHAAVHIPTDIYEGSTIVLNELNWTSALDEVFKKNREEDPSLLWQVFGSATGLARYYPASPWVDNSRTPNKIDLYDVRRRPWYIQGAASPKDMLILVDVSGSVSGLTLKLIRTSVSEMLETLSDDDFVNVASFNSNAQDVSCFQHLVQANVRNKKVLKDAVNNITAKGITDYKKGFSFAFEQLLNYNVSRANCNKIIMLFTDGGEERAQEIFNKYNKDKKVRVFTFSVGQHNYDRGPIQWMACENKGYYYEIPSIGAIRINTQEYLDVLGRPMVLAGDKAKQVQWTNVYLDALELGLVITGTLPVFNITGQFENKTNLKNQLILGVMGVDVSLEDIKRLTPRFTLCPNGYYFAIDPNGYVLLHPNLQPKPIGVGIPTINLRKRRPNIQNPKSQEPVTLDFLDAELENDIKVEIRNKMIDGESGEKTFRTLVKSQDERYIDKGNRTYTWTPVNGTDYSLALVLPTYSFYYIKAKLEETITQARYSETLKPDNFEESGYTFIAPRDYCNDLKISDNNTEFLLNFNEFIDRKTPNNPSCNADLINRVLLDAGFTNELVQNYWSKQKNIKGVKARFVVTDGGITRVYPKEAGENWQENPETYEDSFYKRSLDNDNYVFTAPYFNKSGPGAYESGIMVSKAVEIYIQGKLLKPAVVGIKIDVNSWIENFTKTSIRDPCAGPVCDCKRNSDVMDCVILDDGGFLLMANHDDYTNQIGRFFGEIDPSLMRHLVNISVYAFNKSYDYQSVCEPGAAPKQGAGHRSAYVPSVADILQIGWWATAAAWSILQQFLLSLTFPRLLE
T1 sequence (P54289 957-1103 partner limits assumed): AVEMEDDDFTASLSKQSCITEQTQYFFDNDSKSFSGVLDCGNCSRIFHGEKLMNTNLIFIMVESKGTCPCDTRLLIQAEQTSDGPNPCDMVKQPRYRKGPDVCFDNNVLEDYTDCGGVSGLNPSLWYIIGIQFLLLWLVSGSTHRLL
T1 sequence (P54284 whole entry partner): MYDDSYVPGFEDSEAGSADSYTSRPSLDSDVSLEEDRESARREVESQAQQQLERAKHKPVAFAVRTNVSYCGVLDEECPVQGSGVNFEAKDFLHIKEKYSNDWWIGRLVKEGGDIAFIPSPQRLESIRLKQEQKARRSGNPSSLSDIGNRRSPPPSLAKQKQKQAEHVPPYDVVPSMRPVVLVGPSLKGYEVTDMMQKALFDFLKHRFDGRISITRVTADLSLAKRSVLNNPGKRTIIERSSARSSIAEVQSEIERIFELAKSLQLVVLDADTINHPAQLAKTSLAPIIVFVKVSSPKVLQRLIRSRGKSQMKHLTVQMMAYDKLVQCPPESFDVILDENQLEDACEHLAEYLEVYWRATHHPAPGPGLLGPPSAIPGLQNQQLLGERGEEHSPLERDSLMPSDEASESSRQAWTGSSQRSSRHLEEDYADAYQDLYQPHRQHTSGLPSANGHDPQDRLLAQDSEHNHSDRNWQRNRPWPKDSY

Turning to `CC1=C(C(=O)O)C(c2cccc(Cl)c2)C(C(=O)NCCC(c2ccccc2)c2ccccc2)=C(COCCc2ccccn2)N1` (stereo not drawn) [Example 6, 4-(3-chlorophenyl)-5-(3,3-diphenylpropylcarbamoyl)-2-methyl-6-(2-(pyridine-2-yl)ethoxy)methyl-1,4-dihydropyridine-3-carboxylic acid], the IC50 at N-type calcium channel [1] is 2510 nM.
On the same count and under the same terms, under `COCC1=C(C(=O)OC)C(c2cccc(Cl)c2)C(C(=O)NCCC(c2ccccc2)c2ccccc2)=C(COCCN)N1` (stereo not drawn) [Example 11, Methyl 6-(2-aminoethoxy)methyl-4-(3-chlorophenyl)-5-(3,3-diphenylpropylcarbamoyl)-2-methoxymethyl-1,4-dihydropyridine-3-carboxylate] stands 2000 nM.
As to `CC1=C(C(=O)O)C(c2cccc(Cl)c2)C(C(=O)NC/C=C/c2ccccc2)=C(COCCC2CCCCC2)N1` (stereo not drawn) [Example 4, 4-(3-chlorophenyl)-6-(2-cyclohexylethoxymethyl)-2-methyl-5-(3-phenyl-2-propene-1-ylcarbamoyl)-1,4-dihydropyridine-3-carboxylic acid], the IC50 was 398 nM at N-type calcium channel [2] and 794 nM on N-type calcium channel [1].
The like results for `CC1=C(C(=O)O)C(c2cccc(Cl)c2)C(C(=O)NC/C=C/c2ccccc2)=C(COCCc2ccccc2)N1` (stereo not drawn) [Example 3, 4-(3-chlorophenyl)-2-methyl-6-(2-phenylethoxymethyl)-5-(3-phenyl-2-propene-1-ylcarbamoyl)-1,4-dihydro-pyridine-3-carboxylic acid] were, in that order, 2000 nM and 2510 nM.

The values above are taken from patent US6610717B2, “Dihydropyridine derivatives” (Ajinomoto Co., Inc., priority 1999, dated 2003).
